# Test results reported in US6699877B2 (Gruenenthal GmbH, priority 2000, dated 2004).
# Target: T1, glycine binding site of the NMDA receptor channel (Rattus norvegicus, UniProt P35439)
# T1 construct: from tissue; host or cells: rat brain cortex and hippocampus membrane homogenate
# Assay: Receptor binding, displacement of (3H)-MDL 105.519 on rat cerebral membrane homogenates
# Conditions: 10 μmol/l test substance; 1 nmol/l (3H)-MDL 105.519
# Procedure: Receptor Binding (Glycine Binding Site of the NMDA Receptor Channel)
# Experiments to determine the affinity of the compounds according to the invention of Formula I to the glycine binding site of the NMDA receptor channel were carried out on cerebral membrane homogenates (homogenate of Cortex- and Hippocampus-Areal from the brain of male rats, Wistar strain) (B. M. Baron, B. W. Siegel, B. L. Harrison, R. S. Gross, C. and P. Towers, Journal of Pharmacology and Experimental Therapeutics, Vol. 279, p. 62, 1996).
# For this purpose, Cortex and Hippocampus from freshly removed rats' brains were dissected, homogenized in 5 mmol/l TRIS-acetate buffer, 0.32 mol/l sacharose pH 7.4 (10 ml/g fresh weight) with a Potter homogenizer (made by Braun/Melsungen, 10 piston strokes at 500 rpm) while cooling with ice and subsequently centrifuged for 10 minutes at 1,000 g and 4° C. The first supernatant material was collected and the sediment homogenized again with […] TRIS-acetate buffer, 0.32 mol/l safcharose pH 7.4 (5 ml/g original fresh weight) using the Potter homogenizer (10 piston strokes at 500 rpm) while cooling with ice and centrifuged for 10 minutes at 1,000 g and 4° C. The resultant supernatant material was combined with the supernatant material from the first centrifugation and centrifuged at 17,000 g for 20 minutes at 4° C. The supernatant material after this centrifugation was discarded, the membrane sediment taken up with 5 mmol/l TRIS-acetate buffer pH 8.0 (20 ml/g original fresh weight) and homogenized with 10 piston strokes at 500 rpm.
# The membrane homogenate was then incubated for 1 hour at 4° C. and centrifuged for 30 minutes at 50,000 g and 4° C. The supernatant material was discarded and the centrifuge tube with the membrane sediment sealed with parafilm and frozen for 24 hours at −20° C. The membrane sediment was thawed on the following day, taken up with ice-cold 5 mmol/l TRIS-acetate buffer, 0.1% saponin (w/v) pH 7.0 (10 ml/g original fresh weight), homogenized with 10 piston strokes at 500 rpm and subsequently centrifuged for 20 minutes at 50,00 g and 4° C. The resultant supernatant material was discarded, the sediment taken up in a small volume with 5 mmol/l TRIS-acetate buffer pH 7.0 (about 2 ml/g original fresh weight) and homogenized again with 10 piston strokes at 500 rpm. After determining the protein content, the membrane homogenate was adjusted to a protein concentration of 10 mg protein/ml using 5 mmol/l TRIS-acetate buffer pH 7.0 and frozen in aliquots for testing.
# For the receptor binding test, aliquots were thawed, diluted 1:10 with 5 mmol/l TRIS-acetate buffer pH 7.0, homogenized with 10 piston strokes at 500 rpm using the potter homogenizer (10 piston strokes at 500 rpm) while cooling with ice and centrifuged for 60 minutes at 55,000 g at 4° C. The supernatant material was decanted, the membrane sediment adjusted to a protein concentration of 1 mg/ml with ice-cold 50 mmol/l TRIS-acetate buffer pH 7.0, homogenized again with 10 piston strokes at 500 rpm and kept in suspension in the ice bath while stirring on a magnetic stirrer. 100 μl of this membrane homogenate per 1 ml of feedstock was used in each case in the receptor binding test (0.1 mg protein/ml in the final batch).
# In the binding test, 50 mmol/l TRIS-acetate buffer pH 7.0 was used as buffer and 1 nmol/l (^3H)-MDL 105.519 (B. M. Baron et al 1996) was used as radioactive ligand. The proportion of unspecific binding was determined in the presence of 1 mmol/l glycine.
# In further batches, the compounds according to the invention were added in concentration series and the displacement of the radioactive ligand from its specific binding to the glycine binding site of the NMDA receptor channel determined. The respective triple batches were incubated for 120 minutes at 4° C. and then harvested to determine the radioactive ligands bound to the membrane homogenate by filtration through glass fiber filter mats (GF/B). […]
row,SMILES,"Displacement (%, 10 μmol/l) of radioactive ligand from specific binding"
1,"O=C(O)C1CC(c2ccc(Cl)cc2)c2c(Cl)cc(Cl)cc2N1 (centres unmarked) [Example 99, 5,7-dichloro-4-(4-chlorophenyl)-1,2,3,4-tetrahydroquinoline-2-carboxylic acid]",43%

# Same assay, conditions: 10 μmol/l test substance; 1 nmol/l (3H)-MDL 105.519; read-out: Displacement (%, 10 μmol/l) of radioactive ligand from specific binding
row,SMILES,inhibition at 10 µM
1,"O=C(O)C1CC(c2ccc(Cl)cc2)c2c(Cl)cc(Cl)cc2N1 (centres unmarked) [Example 97, 5,7-dichloro-4-(4-chlorophenyl)-1,2,3,4-tetrahydroquinoline-2-carboxylic acid]",39%
2,"CCOC(=O)C1Nc2c(Cl)cc(Br)cc2C(c2ccccc2)C1C (centres unmarked) [Example 90, 6-bromo-8-chloro-3-methyl-4-phenyl-1,2,3,4-tetrahydroquinoline-2-carboxylic acid ethyl ester]",46%
3,"O=C(O)C1Nc2cc(Cl)cc(Cl)c2C2c3ccccc3CC12 (centres unmarked) [Example 101, 1,3-dichloro-5,6a,7,11b-tetrahydro-6H-indeno[2,1-c]quinoline-6-carboxylic acid]",98%
4,"Cc1cccc(C2CC(C(=O)O)Nc3c(Cl)cc(F)cc32)c1 (centres unmarked) [Example 84, 8-chloro-6-fluoro-4-m-tolyl-1,2,3,4-tetrahydroquinoline-2-carboxylic acid]",79%
5,"COc1ccc(C2c3cc(C#N)ccc3NC(C(=O)O)C2c2ccc(OC)cc2)cc1 (centres unmarked) [Example 94, 6-cyano-3,4-bis-(4-methoxyphenyl)-1,2,3,4-tetrahydroquinoline-2-carboxylic acid]",55%
6,"Cc1ccc(C2CC(C(=O)O)Nc3cc(Cl)cc(Cl)c32)cc1 (centres unmarked) [Example 20, 5,7-dichloro-4-p-tolyl-1,2,3,4-tetrahydroquinoline-2-Carboxylic Acid]",61%
7,"Cc1cccc(C2CC(C(=O)O)Nc3c(F)cc(Cl)cc32)c1 (centres unmarked) [Example 83, 6-chloro-8-fluoro-4-m-tolyl-1,2,3,4-tetrahydroquinoline-2-carboxylic acid]",93%
8,"O=C(O)C1CC(c2ccc(Br)cc2)c2c(Cl)cc(Cl)cc2N1 (centres unmarked) [Example 40, 4-(4-bromophenyl)-5,7-dichloro-1 ,2,3,4-tetrahydroquinoline-2-carboxylic Acid]",70%
9,"O=C(O)C1CC(c2ccc(Br)cc2)c2cc(Cl)cc(F)c2N1 (centres unmarked) [Example 85, 4-(4-bromophenyl)-6-chloro-8-fluoro-1,2,3,4-tetrahydroquinoline-2-carboxylic acid]",61%
10,CCOC(=O)C1Nc2cc(Cl)cc(Cl)c2C2c3ccccc3CC12 (centres unmarked) [Example 61],15%
11,"COc1ccc(C2c3cc(Oc4ccccc4)ccc3NC(C(=O)O)C2C)cc1 (centres unmarked) [Example 82, 4-(4-methoxyphenyl)-3-methyl-6-phenoxy-1,2,3,4-tetrahydroquinoline-2-carboxylic acid]",96%
12,"Cc1ccc(C2CC(C(=O)O)Nc3c(Cl)cc(Br)cc32)c(C)c1 (centres unmarked) [Example 91, 6-bromo-8-chloro-4-(2,4-dimethylphenyl)-1,2,3,4-tetrahydroquinoline-2-carboxylic acid]",46%
13,"CCOC(=O)C1CC(c2cccc(C)c2)c2c(Cl)cc(Cl)cc2N1 (centres unmarked) [Example 17, 5,7-dichloro-4-m-tolyl-1,2,3,4-tetrahydroquinoline-2-carboxylic Acid Ester]",21%
14,"CCOC(=O)C1Nc2ccc(C#N)cc2C2c3ccccc3CC12 (centres unmarked) [Example 88, 2-cyano-5,6a,7,11b-tetrahydro-6H-indeno[2,1-c]quinoline-6-carboxylic acid ethyl ester]",34%

# Further lines, results first:
row,inhibition at 10 µM,SMILES
1,21%,"CCOC(=O)C1Nc2cc(Cl)cc(Cl)c2C(c2ccccc2)C1C (centres unmarked) [Example 42, 5,7-dichloro-3-methyl-4-phenyl-1,2,3,4-tetrahydroquinoline-2-carboxylic Acid Ethyl Ester]"
2,26%,"CCOC(=O)C1CC(c2ccc(C)cc2C)c2c(Cl)cc(Cl)cc2N1 (centres unmarked) [Example 21, 5,7-dichloro-4-(2,4-dimethylphenyl)-1,2,3,4-tetrahydroquinoline-2-carboxylic Acid Ethyl Ester]"
3,32%,"CCOC(=O)C1CC(c2ccc(F)cc2)c2c(Cl)cc(Cl)cc2N1 (centres unmarked) [Example 30, 5,7-dichloro-4-(4-fluorophenyl)-1,2,3,4-tetrahydroquinoline-2-carboxylic Acid Ethyl Ester]"
4,75%,"O=C(O)C1CC(c2ccccc2F)c2c(Cl)cc(Cl)cc2N1 (centres unmarked) [Example 27, 5,7-dichloro-4-(2-fluorophenyl)-1,2,3,4-tetrahydroquinoline-2-carboxylic Acid]"
5,75%,"O=C(O)C1CC(c2ccccc2)c2c(Cl)cc(Cl)cc2N1 (centres unmarked) [Example 15, 5,7-dichloro-4-phenyl-1,2,3,4-tetrahydroquinoline-2-carboxylic Acid]"
6,61%,"Cc1cc(C)cc(C2CC(C(=O)O)Nc3cc(Cl)cc(Cl)c32)c1 (centres unmarked) [Example 102, 5,7-dichloro-4-(3,5-dimethyl-phenyl)-1,2,3,4-tetrahydroquinoline-2-carboxylic acid]"
7,78%,"O=C(O)C1CC(c2cccc(F)c2)c2c(Cl)cc(Cl)cc2N1 (centres unmarked) [Example 29, 5,7-dichloro-4-(3-fluorophenyl)-1,2,3,4-tetrahydroquinoline-2-carboxylic Acid]"
8,46%,"CCOC(=O)C1CC(c2ccccc2Br)c2c(Cl)cc(Cl)cc2N1 (centres unmarked) [Example 36, 4-(2-bromophenyl)-5,7-dichloro-1,2,3,4-tetrahydroquinoline-2-carboxylic Acid Ethyl Ester]"
9,72%,"O=C(O)C1CC(c2cccc(Br)c2)c2c(Cl)cc(Cl)cc2N1 (centres unmarked) [Example 38, 4-(3-bromophenyl)-5,7-dichloro-1,2,3,4-tetrahydroquinoline-2-carboxylic Acid]"
10,51%,"O=C(O)C1CC(c2cccc(Cl)c2)c2c(Cl)cc(Cl)cc2N1 (centres unmarked) [Example 98, 5,7-dichloro-4-(3-chlorophenyl)-1,2,3,4-tetrahydroquinoline-2-carboxylic acid]"
11,26%,"CCOC(=O)C1CC(c2ccc(C)cc2)c2c(Cl)cc(Cl)cc2N1 (centres unmarked) [Example 19, 5,7-dichloro-4-p-tolyl-1,2,3,4-tetrahydroquinoline-2-carboxylic Acid Ethyl Ester]"
12,58%,"O=C(O)C1CC(c2ccc(F)cc2)c2c(Cl)cc(Cl)cc2N1 (centres unmarked) [Example 31, 5,7-dichloro-4-(4-fluorophenyl)-1,2,3,4-tetrahydroquinoline-2-carboxylic Acid]"
13,37%,"O=C(O)C1CC(c2ccc(Cl)cc2)c2cc(Cl)c(C(F)(F)F)cc2N1 (centres unmarked) [Example 87, 6-chloro-4-(4-chlorophenyl)-7-trifluoromethyl-1,2,3,4-tetrahydroquinoline-2-carboxylic acid]"
14,38%,"CCOC(=O)C1CC(c2ccccc2)c2c(Cl)cc(Cl)cc2N1 (centres unmarked) [Example 14, 5,7-dichloro-4-phenyl-1,2,3,4-tetrahydroquinoline-2-carboxylic Acid Ethyl Ester]"
15,33%,"Cc1ccc(C2CC(C(=O)O)Nc3c2ccc(Cl)c3Cl)c(C)c1 (centres unmarked) [Example 86, 7,8-dichloro-4-(2,4-dimethylphenyl)-1,2,3,4-tetrahydroquinoline-2-carboxylic acid]"
16,35%,"CCOC(=O)C1CC(c2cccc(F)c2)c2c(Cl)cc(Cl)cc2N1 (centres unmarked) [Example 28, 5,7-dichloro-4-(3-fluorophenyl)-1,2,3,4-tetrahydroquinoline-2-carboxylic Acid Ethyl Ester]"
17,33%,"CCOC(=O)C1Nc2c(Cl)cc(F)cc2C(c2ccc(OC)cc2)C1c1ccc(OC)cc1 (centres unmarked) [Example 95, 8-chloro-6-fluoro-3,4-bis-(4-methoxyphenyl)-1,2,3,4-tetrahydroquinoline-2-carboxylic acid ethyl ester]"
